88 molecules from a melting point compilation (Tetko et al.; mined from patent text by program, amines drawn as free bases though some values may be those of a salt) can be followed below.

One may read the melting point as the temperature of the solid-liquid transition.

Some results are limits rather than exact numbers.

`CCCC1(C)OC(=O)C(c2ccc(F)cc2)=C1c1ccc(S(C)(=O)=O)cc1` (stereo not drawn) had a melting point of 112 to 113 °C.

Regarding `COc1ccc2nc(-c3ccccc3)cc(CCNC(=O)C(F)(F)F)c2c1`, the melting point fell in the range of 122 to 124 °C.

For `Cc1cc(O)ccc1Oc1ccccc1`, the melting point fell in the range of 96 to 99 °C. For `CCN(CC)C(=O)c1ccc(C(c2cccc(O)c2)N2CC(C)NCC2C)cc1` (stereo not drawn) the value was 175 to 177 °C; for `Cn1nc(-c2ccccc2F)nc1-c1ccccc1C(F)(F)F`, 104 to 107 °C; for `CC(O)C1CCC2C3CCC4=CC(O)CCC4(C)C3CCC12C` (stereo not drawn), 169 to 170 °C. As for `CONC(=O)c1cc(-c2ccc(-c3ccco3)cc2)n(-c2ccc(S(C)(=O)=O)c(F)c2)n1`, the figure is 126 to 128 °C.

The molecule `COc1ccc(CC(=O)NC(NC(=NC#N)Nc2ccccc2Cl)C(C)(C)C)cc1OC` (stereo not drawn) returned a melting point of 135 to 136 °C. For `COc1ccc2c(OCc3cc(OC)c(F)cc3Br)cccc2c1` the value was 138 to 142 °C.

The molecule `O=C(O)C1=C(c2ccccc2)C(c2ccccc2)OC1=O` (stereo not drawn) had a melting point of 116 to 117 °C.

`CCCCOC1(c2nc(-c3ccc(F)cc3)c(-c3ccncc3)[nH]2)CCN(C)CC1` displayed a melting point of 177 °C.

In the case of `CCn1c(NC)n[nH]c1=O`, the melting point was 208 to 210 °C.

In turn, `CCc1cccc(C)c1CNc1cc(C(=O)NCCO)cc2c1nc(C)n2C` displayed a melting point of 200 to 201 °C.

In turn, `CNc1c(CC(C)O)cc([N+](=O)[O-])cc1[N+](=O)[O-]` (stereo not drawn) returned a melting point of 132 °C. Molecule `CCCc1c2c(c(OC)c3c(=O)cc(C(=O)O)oc13)CCCC2` showed a melting point of 228 to 229 °C.

`COc1ccc(NCC(=O)N2CCC(Cc3ccc(F)cc3)CC2)cc1` yielded a melting point of 141 to 143 °C. Turning to `O=C(O)c1ccc(OC(F)=C(F)F)cc1`, the melting point fell in the range of 139 to 140 °C. As for `CCN(CC)S(=O)(=O)c1ccccc1N`, the figure is 45 to 51 °C; as for `CC(C)C1C(=O)N(CC(=O)O)C(c2ccccc2)=CN1C(=O)c1cccnc1` (racemic), 230 to 240 °C; as for `CCOC(=O)CCCOc1ccccc1O`, 37.2 to 38.4 °C. For `Fc1ccc(CC(c2ccccc2)C(F)(F)F)cc1` (stereo not drawn), the melting point lay in the range of 143 to 145 °C.

The molecule `Cc1nc2ccc(S(=O)(=O)n3c(COC(C)C(=O)O)cc4cc(Cl)ccc43)cc2s1` (stereo not drawn) showed a melting point of 106 to 108 °C. `COCCOc1cc2ncc(C#N)c(Nc3ccc(C)c(O)c3)c2cc1OC` showed a melting point of 230 to 233 °C. `COc1cc(OC)c(-c2nccs2)cc1/C=C/C(=O)c1ccc(C(=O)O)cc1` gave a melting point greater than 260 °C. As for `Cc1cc(O)c(SCc2ccccc2)c(=O)o1`, the figure is 128 °C. For the molecule `CCOC(=O)C(=O)c1csc(NC(=O)Nc2ccc(OC)cc2)n1`, the melting point lay in the range of 193 to 196 °C. As for `CCOC(=O)c1ncn(-c2nccs2)c1Cl`, the figure is 128 to 131 °C; as for `CC(C)(C)OCC(NC(=O)c1ccccc1SSc1ccccc1C(=O)NC(COC(C)(C)C)C(=O)O)C(=O)O` (stereo not drawn), 206 to 207 °C; as for `CCc1nc2cc(F)ccc2c(=O)n1NC(=O)C(C)c1ccccc1` (stereo not drawn), 57 to 63 °C. As for `CCCCn1c2c(c(=O)n(CCCC)c1=O)CN(S(=O)(=O)Cc1ccccc1)N2`, the figure is 137 to 140 °C; as for `COC(=O)NC1CCC(Nc2ncc3c(N)cc(=O)n(CCCO)c3n2)CC1` (stereo not drawn), 190 to 191 °C; as for `Nc1cccc2c1=NC(=O)C=2c1ccccc1`, 226 to 230 °C.

Turning to `CCCCc1ncc(C=O)n1Cc1ccc(C(=O)OC)c(Cl)c1Cl`, the melting point is 94 to 96 °C. `O=C(O)c1ccc(NCc2ccc(OCc3ccccc3)cc2)cc1` had a melting point of 206 to 208 °C. For `COC(=O)c1cc(O)c2ccc(OCc3ccccc3)cc2c1` the value was 179 to 180 °C. In turn, `CCCCOCCOc1ccc(-c2ccc3c(c2)C=C(C(=O)O)CCN3c2ccc(S(N)(=O)=O)cc2)cc1` displayed a melting point of 185 to 195 °C. Turning to `COc1ccc(CCN2CCC(NC(=O)c3ccccc3)CC2)cc1OC`, the melting point is 194 to 195 °C. For `O=C1C(=O)c2ccc(-c3cccnc3)cc2C2=C1SCC1(CCN(C(=O)c3cccc(Cl)c3)CC1)O2` the value was 240 to 242 °C; for `COc1ccc(Nc2cccc3c2C(=O)N(C2CCC(=O)NC2=O)C3=O)cc1` (stereo not drawn), 228 to 230 °C; for `Cc1oc(-c2ccccc2)nc1COc1ccc(COc2ccc3ccccc3c2CC#N)cc1`, 178 to 179 °C. As for `CCCOc1ccc(-c2cc(C)cn2-c2ccc(S(N)(=O)=O)cc2)cc1`, the figure is 142 to 145 °C; as for `O=C(Nc1ccc2ccc(Cl)nc2n1)c1ccccc1Cl`, 180 °C. Regarding `Nc1ncc(-c2ccccc2)nc1Oc1ccccc1`, the melting point was 129 to 131 °C. For `COc1cc2c(cc1Nc1ncc(Cl)c(Nc3ccc(N(C)C)cc3OC)n1)CCN(CC(=O)N1CCN(C)CC1)CC2` the value was 145 °C; for `O=C(O)CC(c1ccc(F)cc1)c1ccc(F)cc1`, 106 to 107 °C. For `CC(=O)Nc1c(Cl)cnn(-c2ccccc2)c1=O` the value was 177 to 178 °C; for `CCCCCCCCCc1c(C(=O)O)sc2cc(Br)ccc12`, 126 to 127 °C. In the case of `NC(=O)c1cc(-c2ccccc2)c(=O)n2c1-c1ccccc1C2`, the melting point was in the range of 294 to 296 °C. Consider `Cc1c(C)c(N2CCN(c3ccc(CN(C)C)cc3)CC2)c(C)c2c1OC(C)(C)C2`, for which the melting point is 134 to 138 °C. As for `CC(C)Oc1c(-c2ccc(S(C)(=O)=O)cc2)cnn(CC(F)(F)F)c1=O`, the figure is 152 to 153 °C; as for `COc1cc(OC)nc(NC(=O)NS(=O)(=O)N=CN(CSC)OC)n1`, 165 to 167 °C. As for `CCOn1cnc2c(N)nc3ccccc3c21`, the figure is 179 to 181 °C; as for `CSC(Cc1ccc(OCCN(C)c2nc3ccccc3o2)cc1)C(=O)O` (stereo not drawn), 140 to 141 °C; as for `FC(F)(F)C(F)(F)Oc1ccc(-c2nnco2)cc1`, 87 to 89 °C. `O=c1[nH]c2c(cc1-c1noc(C3CC3)n1)CN(Cc1ccccc1)CC2` had a melting point of 187 to 190 °C. `CS(=O)(=O)N1C(=O)[C@H](C2CC2)[C@H]2[C@@H]1CCN2C(=O)OCc1ccccc1` (relative stereo) gave a melting point of 144 to 150 °C. With `CCCC=Cc1c(C(C)C)nc(C(C)C)c(CO)c1-c1ccc(F)c(F)c1`, the melting point fell in the range of 105 to 106 °C. In the case of `CC(C)(C)OC(=O)NN=C1C2CC3CC(C2)CC1C3`, the melting point lay in the range of 175 to 177 °C. For `O=C(O)CCCc1cc2nc(Cl)ccc2n1S(=O)(=O)c1ccc(-n2cccn2)cc1` the value was 196 to 207 °C; for `COc1ccc(C2c3cc(OC)c(OC)cc3CCN2C(=O)NCCN(C(C)C)C(C)C)cc1OC` (stereo not drawn), 114 to 115 °C; for `CC(=O)Oc1cccc2c(-c3ccccc3)c3cccc(OC(C)=O)c3c(OC(C)=O)c12`, 193 to 194 °C. As for `Nc1c(CC(=O)O)cccc1Oc1ccccc1Cl`, the figure is 86 to 90 °C. For `CN1CCN(C=Nc2ccc3nnc(-c4ccc([N+](=O)[O-])o4)n3n2)CC1` the value was 247 to 248 °C; for `O=C(O)c1ccc(N(CCOc2cccc3ccccc23)C(=O)C(F)(F)F)cc1`, 167 to 168 °C; for `CCCC[C@H]1CC[C@H](c2ccc(CCc3ccc(OC(F)F)cc3)cc2)CC1`, 32 °C.

In the case of `CCCCOc1cc(/C=C(\OC)C(=O)O)ccc1CCCc1ccc(OS(=O)(=O)CCCC)c(OC)c1`, the melting point stood at 72.5 °C. As for `CCCOc1ccc(Br)c(C(C)=O)c1`, the figure is 50 to 52 °C; as for `O=C(O)C=Cc1ccc(Oc2c(-c3ccc(O)cc3)ccc3cc(O)ccc23)cc1`, 150 to 153 °C; as for `CCOC1=C(C#N)S(=O)(=O)N=C1N`, 236 to 238 °C. For `CN(CCCCOc1ccc(CC2SC(=O)NC2=O)cc1)c1nc2ccccc2o1` (stereo not drawn) the value was 112 °C; for `CC(C)=NOCC(C)OC(=O)COc1ccc(Cl)c2cccnc12` (stereo not drawn), 102 °C; for `O=C1NC(=O)C(Cc2ccc(OCCON=Cc3ccc(-c4ccccc4)cc3)cc2)S1` (stereo not drawn), 124 to 127 °C. For `Cc1c(C(=O)c2cnn(C)c2O)ccc2sc(=O)n(C)c12` the value was 192 to 195 °C. For `COc1cccc(N2CCN(Cc3ccccc3C(c3ccc(O)cc3)c3ccc(O)cc3)CC2)c1`, the melting point is 128 to 130 °C. For `CC(=O)N1CCC(C(C)(O)c2ccc(Cl)cc2)CC1` (stereo not drawn), the melting point fell in the range of 178 to 180 °C. In turn, `O=C(NC1CCN(C(=O)NCCC2(C(=O)NCC(F)(F)F)c3ccccc3-c3ccccc32)CC1)c1ccccc1` gave a melting point of 220 to 222 °C. With `CCCCOc1ccc(C(=O)Nc2ccc3cc(C(C)N4CCCC4)cnc3c2C)cc1` (stereo not drawn), the melting point was 136 to 139 °C. Turning to `O=C(c1ccco1)c1cnn2c(-c3cccnc3)ccnc12`, the melting point was 228 to 229 °C.

Consider `CCCCCCn1c(=O)n(C)c(=O)c2cnn(C)c21`, for which the melting point is 106 to 107 °C.

Turning to `CCOC(=O)C1CCc2cc(O)c(C(C)=O)cc2C1` (stereo not drawn), the melting point was in the range of 73 to 75 °C. Molecule `COc1cc(N)c(Cl)cc1C(=O)NC1CCN(CCC(O)C(=O)c2ccc(F)cc2)CC1OC` (stereo not drawn) yielded a melting point of 146 °C.

The molecule `CCCn1nc(C)c2nc(C)nc(O)c21` showed a melting point of 196 to 198 °C. As for `CC(=S)Nc1ccc[nH]1`, the figure is 93 to 94 °C. Take `COc1cc(C)nc(NC(=O)NS(=O)(=O)c2ccccc2C(=O)Nc2nccs2)n1`: the melting point was 185 to 187 °C.

`NC(=O)C=Cc1ccc(NC(=O)C=C2CC(C(=O)OCc3ccccc3)Nc3cc(Cl)cc(Cl)c32)cc1` (racemic) gave a melting point greater than 250 °C. For `COC(=O)CCc1ccc(Oc2ccc(-c3ccc(C(=N)N)cc3)nn2)cc1` the value was 178 to 181 °C; for `O=C(CCCN1CCN(c2ccccc2Cl)CC1)N1CCc2ccccc21`, 119 to 121 °C; for `Cc1nn(CC(=O)c2ccc(Cl)cc2)c(=O)n1-c1ccc(N2CCN(c3ncc(O)cn3)CC2)cc1`, 225 °C.
